The values below come from US3986862A, “Emulsifiable liquid concentrates containing 4-amino-6-t-butyl-3-(methylthio)-1,2,4-triazin-5-one and 2-chloro-N-(2,6-diethylphenyl)-N-methoxymethylacetamide” (E. I. Du Pont de Nemours and Company, priority 1974, dated 1976).

The format of the data set is physicochemical. The method, then: The unexpected solvent synergism between alachlor, metribuzin and chlorobenzene is illustrated in the Table below. […] When metribuzin is the only material in chlorobenzene only 4% can be held in solution at -6° C. This is equivalent to about 0.35 lbs. metrubuzin/gallon. Solutions more concentrated than that could not be stored at the commercially important warehousing conditions at or near the conventional freezing temperatures (32° F. or 0° C.). […] These concentrations represent 0.8 lbs. of metribuzin and 3.2 lbs. of alachlor per gallon.
SOLUBILITY OF METRIBUZIN AT LOW TEMPERATURES IN
LASSO* AND/OR CHLOROBENZENE

Where [1] appears, read: metribuzin the only material in chlorobenzene, at -6° C.

Take `CSc1nnc(C(C)(C)C)c(=O)n1N` [Metribuzin, 4-amino-6-t-butyl-3-(methylthio)-1,2,4-triazin-5-one]: where the note is “4% metribuzin, 0% alachlor, solvent chlorobenzene”, the “Incipient Crystallization Temperature” value was -6 °C. Besides, under setting [1], the “amount of metribuzin that can be held in solution” value worked out at 4% and the “amount of metribuzin that can be held in solution, equivalent” value is listed as “about 0.35 lbs. metrubuzin/gallon”.
